Results on 1 molecule are retold here after paper PMC7281280, “Is the Way to Fight Cancer Paved with Gold? Metal-Based Carbene Complexes with Multiple and Fascinating Biological Features” (Pharmaceuticals, 2020).

In one assay the test system is tubulin. Briefly: In vitro tubulin-polymerization assay (turbidity at 350 nm). The format is biochemical. The settings on record: 10 µM. How it is done: Tubulin-polymerization inihibition was measured using in vitro Tubulin-Polymerization Assay Kit purchased fromEMD Millipore Corporation. Polymerization reactions occur in 70 µL final volumes, of which 60 µL is the 60 µM tubulin in 1 × PB-GTP and 10 µL is the test substance dissolved in 1 × PB-GTP. […] These reactives were combined in 96-well plate on ice. After the plate was transferred into the spectrophotometer pre-warmed at 37 °C and the turbidity variation was measured every 30 s at 350 nm for 90 min. The plate was shaked for 10 s before each measurement. Turbidity (absorbance) readings were used to calculate the extent of polymerization [% inhibition = (1−A350 sample/A350 control) × 100].
Figure 4 Tubulin-polymerization assay. […] Two positive control molecules, Paclitaxel and Vinblastine, were used as tubulin-stabilizing and tubulin-destabilizing agents, respectively. DMSO was used as a negative control. Assembly of tubulin into microtubules was determined by measuring the turbidity at 350 nm for 3600 s at 37 °C. All the compounds were used at a concentration of 10 μM.

The subject of assay [1] is MDA-MB-231 cells. To be noted: at IC50 value, 24 h. How it is done: At this purpose, we performed immunostaining studies using the mitochondrial probe MitoTracker Deep Red FM and an anti-cytochrome c antibody, to follow the possible release of this protein from the mitochondrial district to the cytoplasm.
The same protocol was performed for mitochondrial staining. […] The primary antibody used in this case was the mouse anti-cytochrome c (556 433), purchased from BD Biosciences. The secondary antibodies used was Alexa Fluor® 488 conjugate goat-anti-mouse (1:500 dilution), purchased from Thermo Fisher Scientific, Waltham, MA, USA.
Images were acquired at 63x magnification and representative fields are shown.

The subject of assay [2] is MDA-MB-231 human breast cancer cells. Briefly: MTT cell viability, MDA-MB-231. Format: cell-based. To be noted: 72 h, mean ± SD. How it is done: (§1) The six cell lines used in this work (MCF-7, MDA-MB-231, HeLa, […], MCF-10A and Hek-293) were purchased from American Type Culture Collection (ATCC, Manassas, VA, USA). MCF-7 human breast cancer cells, estrogen receptor (ER)-positive, were maintained in Dulbecco’s modified Eagle’s medium/nutrient mixture Ham F-12 (DMEM/F12), supplemented with 10% fetal bovine serum (FBS) and 100 U mL^−1 penicillin/streptomycin. MCF-10A human mammary epithelial cells, were cultured in DMEM/F12 medium, supplemented with 5% horse serum (HS, Thermo Fisher Scientific, Milan, Italy), 100 U mL^−1 penicillin/streptomycin, […] hydrocortisone, 20 ng mL^−1 human epidermal growth factor (hEGF), […] insulin, and […] cholera enterotoxin (Sigma–Aldrich, Milan, Italy). MDA-MB-231 human breast cancer cells, known as triple-negative cells (i.e., not overexpressing human epidermal growth factor receptor 2 (HER2), estrogen and progesterone receptors), were cultured in DMEM/F12 supplemented with 5% FBS, 1% L-glutamine and 100 U mL^−1 penicillin/streptomycin. HeLa human epithelial cervix carcinoma cells, estrogen receptor (ER)-negative, and […] human endometrial adenocarcinoma cells, estrogen receptor (ER)-positive, were maintained in minimum essential Eagle’s Medium (MEM), supplemented with 10% FBS, 1% L-glutamine, 100 U mL^−1 penicillin/streptomycin and 1% Non-Essential Amino Acids (NEAA). Hek-293 human embryonic kidney epithelial cells were cultured in DMEM high glucose (4.5 g L^−1), supplemented with 10% FBS, 1% L-glutamine and 100 U mL^–1 penicillin/streptomycin. Cells were maintained at 37 °C in a humidified atmosphere of 95% air and 5% CO2 and periodically screened for contamination.
(§2) Cell viability has been determined using the 3-(4,5-dimethylthiazol-2-y1)-2,5-diphenyltetrazolium bromide (MTT, Sigma–Aldrich, Milan, Italy) assay. Cells have been seeded on 48-well plates and grown in complete medium. Before being treated, cells have been starved in serum free medium for 24 h for allowing cell cycle synchronization. […] Data are representative of three independent experiments; standard deviations (SD) have been shown.

Assay [3] has as its system HeLa human epithelial cervix carcinoma cells. Nature of the assay: MTT cell viability, HeLa. To be noted: 72 h, mean ± SD. The format is cell-based. On the procedure:
as §1, §2

Assay [4] relates to Hek-293 human embryonic kidney epithelial cells. Briefly: MTT cell viability, normal Hek-293. The format is cell-based. On the procedure: as §1, §2
The next assay relates to caspase-8. The settings on record: 5 μM, 24 h, MDA-MB-231 cells.
Assay [5] deals with MDA-MB-231 cells. To be noted: at IC50 value, 24 h. This is another data set of the same source.
Assay [6] has as its system MCF-7 human breast cancer cells. Briefly: MTT cell viability, MCF-7. The settings on record: 72 h, mean ± SD. The format is cell-based. How it is done:
as §1, §2

Read-outs that look alike come from different tables or passages of the source.

As for `C[n+]1c(Cl)c(Cl)n(CC(O)c2ccccc2)[c]1[Au-][c]1n(CC(O)c2ccccc2)c(Cl)c(Cl)[n+]1C.[Cl][Au-][Cl]` (racemic) [AuL7, bis-[4,5-dichloro-(N-methyl-N’(2-hydroxy-2-phenyl)ethyl-imidazole-2-ylidene)gold(I)]^+[dichloro-gold]^−], the “effect on tubulin-polymerization reaction” value in the assay with tubulin was “tubulin-polymerization inhibitor”. Moreover, the “final optical density value at 350 nm (OD350)” value in the assay with tubulin (37 °C, vehicle (DMSO) about 0.43) is on record as “about 0.25”. The cytochrome c localization entry with MDA-MB-231 cells [1] was “cytochrome c release and diffusion into the cytoplasmic compartment”. The “mitochondrial integrity (MitoTracker Deep Red FM)” value with MDA-MB-231 cells [1] is “loss of mitochondrial structural integrity”. In addition, the IC50 in assay [2] came out at 2.1 ± 0.7 µM; in assay [3] it was 31.9 ± 0.5 µM; in assay [4] (normal cells, MTT, 72 h, mean ± SD, read-out: IC50 Hek-293) it was 65 µM; in assay [4] (read-out: IC50 Hek-293 of AuL7 after Quercetin pre-treatment, pre-treatment for 4 h with Quercetin (at 50 μM)) it was 96.9 ± 1.1 µM; in assay [6], 5.18 ± 0.4 µM. In the assay with caspase-8, the caspase-8 activity result is “unchanged”. Besides, in the assay on MDA-MB-231 cells [5], the “apoptosis (TUNEL)” value is listed as “green nuclear fluorescence”.
